One assay addresses EGFR (Homo sapiens, UniProt P00533). In words: EGFR signaling (pEGFR Tyr1068/total EGFR MSD) in A431 cells. In kind it is cell-based. Details: endogenous in cells; host or cells: A431, N87. The note with it: for EC50: A431 cells, read-out: A431 pEGFR EC50; for Selectivity A431 EC50/BT474 EC50: ratio A431 pEGFR EC50 to BT474 pHER2 EC50; for Selectivity A431 EC50/HEKYVMA EC50: ratio A431 pEGFR EC50 to HEK YVMA pHER2 EC50. Summed up: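 EC50 was fitted with variable Hill slope from MSD pTyr1068/total EGFR ratios, expressed as % DMSO control. A431 cells were starved overnight, then exposed 1.5 h to eight concentrations from 10 to 0.005 μM in 1% FBS before a 10-min 100 ng/mL EGF pulse.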

A further assay concerns the target HER2YVMA (Homo sapiens, UniProt P04626, INS775YVMA). Briefly: HER2 signaling (pHER2) in Hek293-HER2YVMA cells. In kind it is cell-based. Also noted: expressed in transfected cells; host or cells: HEK293 (pool), Ba/F3 (clones), BEAS2B (clones); lentiviral vector pCDH-CMV-MCS-EF1-Neo. The note with it: 1.5 hr compound, 1% FBS, read-out: HEKYVMA pHER2 EC50. Summed up: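 Lentivirally transduced HER2YVMA lines (HEK293 pool; BEAS2B clone) treated 1.5 h at 37 °C in 1% FBS medium with compound at 0.0005–1.1 μM. Lysates read by MSD immunoassay for pHER2 (Tyr1248) normalized to total HER2, as % DMSO control; EC50 from variable-slope sigmoidal fit.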

HER2YVMA, sequence (P04626 with tags, fused parts or gaps INS775YVMA): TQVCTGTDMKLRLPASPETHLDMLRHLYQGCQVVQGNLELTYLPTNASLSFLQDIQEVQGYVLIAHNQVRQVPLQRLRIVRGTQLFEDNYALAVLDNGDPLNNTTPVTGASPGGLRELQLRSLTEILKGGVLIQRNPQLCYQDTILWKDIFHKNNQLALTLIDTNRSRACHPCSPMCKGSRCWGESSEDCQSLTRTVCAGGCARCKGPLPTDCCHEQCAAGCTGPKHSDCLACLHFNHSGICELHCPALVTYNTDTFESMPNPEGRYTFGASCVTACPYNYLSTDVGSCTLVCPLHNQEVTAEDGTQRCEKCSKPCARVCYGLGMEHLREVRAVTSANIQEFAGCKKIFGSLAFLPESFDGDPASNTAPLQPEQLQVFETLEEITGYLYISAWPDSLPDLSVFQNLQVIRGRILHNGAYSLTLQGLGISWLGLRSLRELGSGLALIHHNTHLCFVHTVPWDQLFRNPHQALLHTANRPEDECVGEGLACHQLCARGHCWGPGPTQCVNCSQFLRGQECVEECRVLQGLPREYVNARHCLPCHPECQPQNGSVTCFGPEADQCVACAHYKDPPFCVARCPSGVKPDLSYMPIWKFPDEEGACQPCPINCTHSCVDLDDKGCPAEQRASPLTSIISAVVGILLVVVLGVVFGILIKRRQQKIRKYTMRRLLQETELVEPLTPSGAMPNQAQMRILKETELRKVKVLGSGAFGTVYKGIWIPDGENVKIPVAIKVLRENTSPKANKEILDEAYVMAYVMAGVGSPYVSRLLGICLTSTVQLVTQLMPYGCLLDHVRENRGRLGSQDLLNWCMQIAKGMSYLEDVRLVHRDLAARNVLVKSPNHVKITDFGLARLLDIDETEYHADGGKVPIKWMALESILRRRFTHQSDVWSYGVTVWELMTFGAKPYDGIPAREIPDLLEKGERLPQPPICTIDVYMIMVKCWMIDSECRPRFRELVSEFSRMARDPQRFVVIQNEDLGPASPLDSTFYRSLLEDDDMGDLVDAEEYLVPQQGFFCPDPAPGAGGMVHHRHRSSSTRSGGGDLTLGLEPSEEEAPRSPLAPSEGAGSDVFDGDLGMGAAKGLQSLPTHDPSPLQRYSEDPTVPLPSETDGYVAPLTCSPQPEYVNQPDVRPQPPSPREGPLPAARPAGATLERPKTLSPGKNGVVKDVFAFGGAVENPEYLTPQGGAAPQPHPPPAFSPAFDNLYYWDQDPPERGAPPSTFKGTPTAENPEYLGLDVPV
EGFR, sequence (P00533 25-1210): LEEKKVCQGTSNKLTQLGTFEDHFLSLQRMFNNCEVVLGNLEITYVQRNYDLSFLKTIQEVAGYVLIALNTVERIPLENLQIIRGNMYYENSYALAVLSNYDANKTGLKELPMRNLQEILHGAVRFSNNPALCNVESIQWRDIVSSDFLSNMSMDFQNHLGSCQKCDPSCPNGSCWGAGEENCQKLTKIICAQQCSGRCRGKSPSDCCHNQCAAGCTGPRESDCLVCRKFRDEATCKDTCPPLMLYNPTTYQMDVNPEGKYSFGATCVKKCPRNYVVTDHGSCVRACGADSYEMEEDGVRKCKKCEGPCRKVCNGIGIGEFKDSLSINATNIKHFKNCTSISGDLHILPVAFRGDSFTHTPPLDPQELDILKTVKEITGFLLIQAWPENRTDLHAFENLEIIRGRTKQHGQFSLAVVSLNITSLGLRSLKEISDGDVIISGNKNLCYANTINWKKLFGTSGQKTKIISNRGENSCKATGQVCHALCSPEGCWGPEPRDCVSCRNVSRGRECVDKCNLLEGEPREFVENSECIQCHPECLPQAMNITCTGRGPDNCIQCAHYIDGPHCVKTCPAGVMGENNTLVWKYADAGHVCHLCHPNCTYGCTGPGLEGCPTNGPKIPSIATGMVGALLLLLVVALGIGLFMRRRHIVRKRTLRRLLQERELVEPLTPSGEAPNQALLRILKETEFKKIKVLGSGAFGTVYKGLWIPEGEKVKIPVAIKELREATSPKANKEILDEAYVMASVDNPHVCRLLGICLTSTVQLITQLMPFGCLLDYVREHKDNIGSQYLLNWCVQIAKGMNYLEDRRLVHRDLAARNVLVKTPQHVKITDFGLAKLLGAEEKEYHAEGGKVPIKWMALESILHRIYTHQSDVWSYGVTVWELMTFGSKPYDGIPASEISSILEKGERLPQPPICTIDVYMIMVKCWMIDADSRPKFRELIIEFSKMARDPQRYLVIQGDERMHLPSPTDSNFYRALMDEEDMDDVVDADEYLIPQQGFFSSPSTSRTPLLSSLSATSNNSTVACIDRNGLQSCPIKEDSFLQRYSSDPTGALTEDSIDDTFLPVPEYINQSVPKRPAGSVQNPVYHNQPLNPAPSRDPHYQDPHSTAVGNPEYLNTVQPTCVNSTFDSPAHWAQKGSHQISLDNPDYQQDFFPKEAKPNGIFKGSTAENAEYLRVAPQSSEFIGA

A word on the EC50: it is the concentration giving half of the maximal effect. With `Cc1ccc(Oc2ccc(Nc3ncnc4sc5c(c34)CCN(C(=O)/C=C/CN(C)C)CC5)cc2C)cn1` [Compound 100, (E)-4-(dimethylamino)-1-(4-((3-methyl-4-((6-methylpyridin-3-yl)oxy)phenyl)amino)-8,9-dihydro-5H-pyrimido[5′,4′:4,5]thieno[2,3-d]azepin-7(6H)-yl)but-2-en-1-one], on EGFR, the EC50 was 100 to 1000 nM; the “Selectivity A431 EC50/BT474 EC50” value is “B (B: ≥ 20 and < 100)”; the “Selectivity A431 EC50/HEKYVMA EC50” value is “C (C: ≥ 10 and < 20)”. Further, the half-maximal effective concentration (EC50) on HER2YVMA was below 100 nM.

For the compound `Cc1ccc(Oc2ccc(Nc3ncnc4sc5c(c34)CCN(C(=O)/C=C/CN3CC4(C3)CS(=O)(=O)C4)C5)cc2C)cn1` [Compound 57], at EGFR, the half-maximal effective concentration (EC50) is below 100 nM; the “Selectivity A431 EC50/BT474 EC50” value is “D (D: ≥ 5 and < 10)”; the “Selectivity A431 EC50/HEKYVMA EC50” value was “D (D: ≥ 5 and < 10)”. Further, the concentration for a half-maximal effect (EC50) on HER2YVMA was below 100 nM.

Turning to `Cc1cc(Nc2ncnc3sc4c(c23)CCN(C(=O)/C=C/CN(C)C(C)(C)C)C4)ccc1Oc1ccc2ncnn2c1` [Compound 80], at EGFR, the EC50 was in the range of 100 to 1000 nM; the “Selectivity A431 EC50/BT474 EC50” value is “B (B: ≥ 20 and < 100)”; the “Selectivity A431 EC50/HEKYVMA EC50” value was “B (B: ≥ 20 and < 100)”. The EC50 at HER2YVMA was below 100 nM.

Consider `Cc1cc(Nc2ncnc3sc4c(c23)CCN(C(=O)/C=C/CN(C)C)C4)ccc1Oc1ccc2[nH]ncc2c1` [Compound 22, (E)-1-(4-((4-((1H-indazol-5-yl)oxy)-3-methylphenyl)amino)-5,8-dihydropyrido[4′,3′:4,5]thieno[2,3-d]pyrimidin-7(6H)-yl)-4-(dimethylamino)but-2-en-1-one], for which, on EGFR, the EC50 is below 100 nM; the “Selectivity A431 EC50/BT474 EC50” value was “D (D: ≥ 5 and < 10)”; the “Selectivity A431 EC50/HEKYVMA EC50” value was “E (E: >1 and < 5)”. The EC50 at HER2YVMA was below 100 nM.
